For orientation: EC50 means the midpoint of the concentration-response curve.

Our source for the EC50 values is BindingDB's records for doi:10.7270/Q2ZG6QP2 (Nmmlsc, 2010).

The structures appear in SMILES notation.

One assay deals with T1, Integrin alpha-4 (Homo sapiens, UniProt P13612).
T1 sequence (P13612 whole entry): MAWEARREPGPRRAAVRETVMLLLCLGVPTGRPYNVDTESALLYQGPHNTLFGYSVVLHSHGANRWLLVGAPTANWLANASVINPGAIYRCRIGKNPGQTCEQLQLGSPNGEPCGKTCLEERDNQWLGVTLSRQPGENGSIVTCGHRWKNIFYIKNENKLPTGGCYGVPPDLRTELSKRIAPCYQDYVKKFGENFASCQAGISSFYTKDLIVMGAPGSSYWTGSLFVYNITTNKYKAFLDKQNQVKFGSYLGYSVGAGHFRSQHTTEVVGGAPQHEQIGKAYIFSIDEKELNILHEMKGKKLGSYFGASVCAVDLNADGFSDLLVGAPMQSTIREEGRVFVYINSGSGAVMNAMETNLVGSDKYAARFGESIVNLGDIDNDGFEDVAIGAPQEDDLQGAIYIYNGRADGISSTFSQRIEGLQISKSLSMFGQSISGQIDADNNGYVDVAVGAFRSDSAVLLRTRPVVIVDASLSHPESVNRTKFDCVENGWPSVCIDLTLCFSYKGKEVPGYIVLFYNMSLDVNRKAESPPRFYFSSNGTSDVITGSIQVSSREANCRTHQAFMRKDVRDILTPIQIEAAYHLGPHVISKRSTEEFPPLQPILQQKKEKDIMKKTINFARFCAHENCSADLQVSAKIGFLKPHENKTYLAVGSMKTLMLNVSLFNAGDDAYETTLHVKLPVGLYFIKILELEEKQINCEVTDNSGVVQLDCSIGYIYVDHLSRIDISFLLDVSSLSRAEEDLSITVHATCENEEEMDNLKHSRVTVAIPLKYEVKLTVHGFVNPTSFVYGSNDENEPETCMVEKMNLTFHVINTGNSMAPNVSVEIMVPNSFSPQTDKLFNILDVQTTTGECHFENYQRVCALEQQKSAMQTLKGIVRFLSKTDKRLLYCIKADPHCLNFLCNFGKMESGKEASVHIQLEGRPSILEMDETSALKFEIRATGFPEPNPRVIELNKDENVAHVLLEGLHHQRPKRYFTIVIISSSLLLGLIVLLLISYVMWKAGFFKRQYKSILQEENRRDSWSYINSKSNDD
As to the kind of experiment: VLA-4 allosteric modulator potency, dose response, cell-based, U937, HUTS-21 LIBS antibody, flow cytometry (AID 449766).
Details: not given
A general note: Flow cytometry measures light scatter and fluorescence of single cells or particles in a stream.
The compound `CN(C)CCOc1ccc(-c2c(-c3ccccc3)sc3ccccc23)cc1` [SMR001397792] returned an EC50 above 30 µM.

The compound `C[S+]([O-])c1nc(-c2ccc(Br)cc2)cc(-c2ccccc2)c1C#N` (configuration not stated) [6-(4-bromophenyl)-2-(methylsulfinyl)-4-phenylnicotinonitrile] came in with a half-maximal effective concentration (EC50) of 2.67 µM.

In turn, `COC(=O)C[C@]1(C(=O)OC)CN(C#N)N(c2ccc(Cl)cc2)C12c1ccccc1-c1ccccc12` [methyl 1-(4-chlorophenyl)-2-cyano-4-(2-methoxy-2-oxoethyl)spiro[pyrazolidine-5,9'-(9'H)-fluorene]-4-carboxylate] showed an EC50 above 30 µM.

`CC(NC(=O)/C(C#N)=C/c1ccc(Cl)c([N+](=O)[O-])c1)c1ccccc1` (configuration not stated) [(E)-3-(4-chloro-3-nitrophenyl)-2-cyano-N-(1-phenylethyl)prop-2-enamide]: the EC50 turned out to be 0.95 µM.

For the compound `c1ccc(-c2sc3ccccc3c2-c2ccc(OCCN3CCCC3)cc2)cc1` [1-[2-[4-(2-phenyl-1-benzothiophen-3-yl)phenoxy]ethyl]pyrrolidine], the EC50 worked out at 14.8 µM.

As to `O=C(COc1ccc(C=NNC(=O)c2cc3ccccc3o2)cc1Cl)Nc1ccccc1` [SMR000160815], the EC50 is above 30 µM.

Turning to `COC(=O)[C@@H]1[C@@H](C(=O)OC)C2(c3ccccc3-c3ccccc32)N(c2ccc(Cl)cc2)N1C#N` [(3'S,4'R)-1'-(4-chlorophenyl)-2'-cyanospiro[fluorene-9,5'-pyrazolidine]-3',4'-dicarboxylic acid dimethyl ester], the EC50 is above 30 µM.

As to `COc1cccc(-c2sc3ccccc3c2-c2ccc(OCCN3CCCC3)cc2)c1`, the EC50 was above 30 µM.

`COc1cccc(-c2sc3ccccc3c2-c2ccc(OCCN(C)C)cc2)c1` gave a concentration giving a half-maximal response (EC50) of 12.4 µM.

The compound `CCOCCCNC(=O)/C(C#N)=C/c1ccc(Cl)c([N+](=O)[O-])c1` [(E)-3-(4-chloro-3-nitrophenyl)-2-cyano-N-(3-ethoxypropyl)-2-propenamide] registered an EC50 of 3.59 µM.

Regarding `C=C1C(O)[C@@H]2O[C@]3(CC[C@H](/C=C/C(C)[C@@H]4CC(C)=CC5(O[C@H](C[C@@](C)(O)CO)CCC5O)O4)O3)CC[C@H]2O[C@@H]1C(O)CC(C)[C@H]1OC2(CCCCO2)CCC1C` (some centres not stated) [MLS002320507], it took 0.61 µM to reach a half-maximal effect (EC50).

`CCOC(=O)C(=Cc1ccc(OC(F)F)cc1)C1=Nn2c(nnc2-c2ccc(Cl)cc2)SC1` [ethyl (Z)-2-[3-(4-chlorophenyl)-7H-[1,2,4]triazolo[3,4-b][1,3,4]thiadiazin-6-yl]-3-[4-(difluoromethoxy)phenyl]prop-2-enoate] came in with a concentration giving a half-maximal response (EC50) of 7.79 µM. This EC50 lies about 13-fold higher than the previous one.

Consider `COc1ccc(-c2sc3ccccc3c2-c2ccc(OCCN(C)C)cc2)cc1` [MLS002473632], for which the EC50 was above 30 µM.

`CCOC(=O)COc1ccccc1/C=C\[N+](=O)[O-]` [SMR000204386]: the response was half-maximal at 2.45 µM (EC50). This lies in the single-digit micromolar range.

In the case of `COC(=O)C1CN(C#N)N(c2ccc(Cl)cc2)C12c1ccccc1-c1ccccc12` (configuration not stated) [2'-(4-chlorophenyl)-1'-cyano-4'-spiro[fluorene-9,3'-pyrazolidine]carboxylic acid methyl ester], the EC50 worked out at 6.71 µM.

For the compound `COc1ccc(C(=O)c2cc([N+](=O)[O-])ccc2N2CCOCC2)cc1` [MLS000663963], the EC50 is above 30 µM.

The compound `Cc1ccc(NC(=O)c2cc(N3C(=O)C=CC3=O)ccc2N2CCOCC2)cc1Cl` [N-(3-chloro-4-methylphenyl)-5-(2,5-dioxo-2,5-dihydro-1H-pyrrol-1-yl)-2-(4-morpholinyl)benzamide] yielded a 50% effective concentration (EC50) of 5.5 µM. This counts as single-digit micromolar.

Compound `C=C(C=O)C[C@@H]1C[C@H](O)C2OC3C[C@]4(C)OC5/C=C\CC6OC7C(CC=CCC6OC5CCCC4OC3CC2O1)OC1CC2OC3CC(=O)OC3C[C@@H](C)C[C@@]2(C)OC1C[C@@H]7C` (some centres not stated) [MLS002320514] registered an EC50 of 2.15 µM.

The assay is the same for the next values; noted with them: inactive by the depositor's call.
Compound `FC(F)(F)c1nnc(-c2ccccc2)nc1Sc1ccc(Cl)cc1` [SMR000180067] displayed a half-maximal effective concentration (EC50) of 0.73 µM. This counts as sub-micromolar.

As for `COc1cccc(-c2sc3ccccc3c2-c2ccc(OCCN3CCCCC3)cc2)c1` [SMR001397793], the EC50 worked out at 5.46 µM.

For `CC1(C)C[C@H]2C=C(C=O)[C@]3(C=O)C[C@]3(C)[C@H]2C1`, the EC50 was found to be 3.15 µM.

The compound `COc1cccc(-c2sc3ccc(OC)cc3c2-c2ccc(OCCN(C)C)cc2)c1` [SMR001397780] registered an EC50 of 0.22 µM.
